Results taken from patent US20130109682A1, “CYCLIC ETHER COMPOUNDS USEFUL AS KINASE INHIBITORS” (NOVARTIS AG, priority 2010, published 2013).
Like-named read-outs stand apart in the source and are kept apart here.

Tests used:
Type in all cases: biochemical
[1] = biological target: PDGFRaV561D kinase (Homo sapiens, UniProt P16234, V561D); assay: PDGFRaV561D kinase inhibition assay (LanthaScreen TR-FRET); conditions: read-out: PDGFRa IC50
Procedure: PDGFRaV561D Kinase Inhibition Assay
(§1) LanthaScreen™ is the detection of Time-Resolved Fluorescence Resonance Energy Transfer (TR-FRET) using lanthanide chelates to measure interactions between various binding partners. The application of TR-FRET to assay kinase activity was first described by Mathis (1995). A TR-FRET assay was used to measure PDGFRaV561D kinase inhibitory activity. The assay panel was run on a Biomek FX liquid handling workstations. To the assay plates containing […] compound or control solutions, 4.5 μL of buffer A (50 mM TRIS-HCl pH 7.4, 2 mM DTT, 0.02% Tween 20, 0.02 mM Na3VO4, H2O nanpure) including a generic concentration of ATP (2 μM f.c.) was added per well, followed by […] of buffer B (4 uM ATP in Buffer A) including a generic concentration of polyEAY (50 nM f.c.), PDGFRaV561D kinase, and divalent cations. Final concentration of kinase and cations were: [PDGFRaV561D kinase]=4.4 nM, [Mn]=10 mM. After 1 hour of incubation the kinase reactions were stopped by the addition of 4.5 μL of stop solution D (50 mM EDTA, 20 mM TRIS-HCl pH 7.4, 0.04% NP-40) immediately followed by 4.5 μL of buffer A (50 mM TRIS-HCl pH 7.4, 2 mM DTT, 0.02% Tween 20, 0.02 mM Na3VO4, H2O nanpure) including the Tb-labeled P-20 antibody to give a total detection volume of […]. After an incubation time of 45 min in the dark, the plates were transferred into the Pherastar fluorescence reader for counting. The effect of compound on the enzymatic activity was obtained from the linear progress curves and determined from one reading (end point measurement).

[2] = biological target: T1, FLT3D835Y kinase (Homo sapiens, UniProt P36888, D835Y); assay: FLT3D835Y kinase inhibition assay (LanthaScreen TR-FRET); conditions: read-out: FLT3 IC50
T1 sequence (P36888 27-993 D835Y): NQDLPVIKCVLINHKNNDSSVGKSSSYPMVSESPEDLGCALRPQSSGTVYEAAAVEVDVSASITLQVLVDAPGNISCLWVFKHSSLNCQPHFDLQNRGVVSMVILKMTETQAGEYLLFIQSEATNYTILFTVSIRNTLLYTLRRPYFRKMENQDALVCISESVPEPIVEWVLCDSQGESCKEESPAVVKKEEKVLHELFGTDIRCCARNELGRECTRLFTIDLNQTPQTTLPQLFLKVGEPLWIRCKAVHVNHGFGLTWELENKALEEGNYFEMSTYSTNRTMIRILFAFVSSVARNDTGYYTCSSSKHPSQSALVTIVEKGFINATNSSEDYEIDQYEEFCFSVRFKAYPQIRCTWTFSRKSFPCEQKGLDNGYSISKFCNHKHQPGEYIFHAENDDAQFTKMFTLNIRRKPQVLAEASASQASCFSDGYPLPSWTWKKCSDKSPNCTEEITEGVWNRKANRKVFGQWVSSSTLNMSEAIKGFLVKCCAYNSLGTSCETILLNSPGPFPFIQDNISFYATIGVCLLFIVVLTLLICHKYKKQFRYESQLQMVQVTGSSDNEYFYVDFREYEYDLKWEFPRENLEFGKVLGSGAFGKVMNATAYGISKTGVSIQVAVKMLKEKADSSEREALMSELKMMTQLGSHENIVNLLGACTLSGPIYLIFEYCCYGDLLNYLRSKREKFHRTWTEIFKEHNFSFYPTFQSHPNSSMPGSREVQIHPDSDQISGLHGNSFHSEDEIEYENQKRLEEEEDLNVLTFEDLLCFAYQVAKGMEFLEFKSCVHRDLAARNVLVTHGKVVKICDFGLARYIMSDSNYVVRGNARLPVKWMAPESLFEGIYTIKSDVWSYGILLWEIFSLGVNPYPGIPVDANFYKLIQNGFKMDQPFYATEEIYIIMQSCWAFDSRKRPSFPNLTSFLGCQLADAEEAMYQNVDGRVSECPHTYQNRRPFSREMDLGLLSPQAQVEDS
Procedure: FLT3D835Y Kinase Inhibition Assay
as §1, with “FLT3D835Y” for “PDGFRaV561D”, “[FLT3D835Y kinase]=5.7” for “[PDGFRaV561D kinase]=4.4”, “[Mg]=3 mM, [Mn]=3” for “[Mn]=10”

[3] = biological target: PKCα (Homo sapiens, UniProt P17252); assay: PKCα kinase Caliper assay; conditions: read-out: PKC IC50
Procedure: PKCα and cABLT315 Kinase Caliper Assays
Assays were performed in 384 well microtiter plates. Each assay plate contained 8-point serial dilutions for test compounds, as well as two 16-point serial dilutions of staurosporine as reference compound, plus 16 high- and 16 low controls. Liquid handling and incubation steps were done on a Thermo CatX workstation equipped with a Innovadyne Nanodrop Express. Between pipetting steps, tips were cleaned in wash cycles using wash buffer. Plates with terminated kinase reactions were transferred to the Caliper LC3000 workstations for reading. Phosphorylated and unphosphorylated peptides were separated using the Caliper microfluidic mobilitishift technology and Kinase activities were calculated from the amounts of formed phospho-peptide.
1. 0.05 μA Compound (start with 1.8 mM in 90% DMSO/10% H2O)
2. +4.5 μl 2× peptide/ATP solution
3. +4.5 μl 2× enzyme solution
4. Incubate for 60 min at 30° C.
4. +16 μl stop/run buffer
Independent of the kinase, all reactions were done performed in 50 mM HEPES, pH 7.5, 1 mM DTT, 0.02% Tween20, 0.02% BSA, and 0.6% DMSO.

Sequence of PDGFRaV561D kinase (P16234 24-1089 V561D): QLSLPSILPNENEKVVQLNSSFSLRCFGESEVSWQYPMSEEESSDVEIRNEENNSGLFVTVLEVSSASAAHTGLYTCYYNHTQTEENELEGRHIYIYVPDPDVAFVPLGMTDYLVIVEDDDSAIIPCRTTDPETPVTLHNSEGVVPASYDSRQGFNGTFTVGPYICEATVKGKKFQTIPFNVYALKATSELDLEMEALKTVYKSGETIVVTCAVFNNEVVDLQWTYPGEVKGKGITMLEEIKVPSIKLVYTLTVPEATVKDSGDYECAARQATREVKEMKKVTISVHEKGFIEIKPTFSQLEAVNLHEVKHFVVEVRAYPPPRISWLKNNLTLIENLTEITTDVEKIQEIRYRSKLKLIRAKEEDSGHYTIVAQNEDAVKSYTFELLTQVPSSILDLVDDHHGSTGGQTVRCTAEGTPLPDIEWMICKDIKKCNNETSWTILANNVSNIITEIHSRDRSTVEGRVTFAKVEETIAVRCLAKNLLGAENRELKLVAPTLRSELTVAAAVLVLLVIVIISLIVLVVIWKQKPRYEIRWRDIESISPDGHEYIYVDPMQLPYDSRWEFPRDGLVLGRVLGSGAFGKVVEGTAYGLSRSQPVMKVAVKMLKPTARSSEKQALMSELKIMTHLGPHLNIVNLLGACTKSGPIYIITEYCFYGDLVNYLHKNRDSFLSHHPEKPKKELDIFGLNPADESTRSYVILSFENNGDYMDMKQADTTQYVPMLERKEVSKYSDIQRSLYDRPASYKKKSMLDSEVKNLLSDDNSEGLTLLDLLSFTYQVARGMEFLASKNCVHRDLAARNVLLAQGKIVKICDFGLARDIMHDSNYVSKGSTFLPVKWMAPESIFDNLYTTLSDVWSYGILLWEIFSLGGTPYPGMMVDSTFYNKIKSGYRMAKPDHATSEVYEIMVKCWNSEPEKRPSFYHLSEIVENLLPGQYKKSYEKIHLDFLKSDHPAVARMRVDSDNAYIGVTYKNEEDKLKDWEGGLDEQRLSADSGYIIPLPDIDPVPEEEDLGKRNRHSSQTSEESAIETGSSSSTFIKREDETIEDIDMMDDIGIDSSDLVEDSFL

| SMILES | IC50 [1] [µM] | IC50 [2] [µM] | IC50 ([3]; PKCα Caliper assay) [µM] | IC50 [3] [µM] |
| --- | --- | --- | --- | --- |
| C[C@]1(O)[C@@H](N)C[C@H](c2ccncc2NC(=O)c2nc(-c3ccccc3)cnc2N)OC12CC2 [Example 351, 3-amino-N-(4-((5R,7S,8S)-7-amino-8-hydroxy-8-methyl-4-oxaspiro[2.5]octan-5-yl)pyridin-3-yl)-6-phenylpyrazine-2-carboxamide] | 0.018 | 0.005 | – | – |
| Nc1ncc(-c2ccccc2)nc1C(=O)Nc1cnccc1[C@H]1C[C@@H](N)[C@@]2(O)CCCC[C@H]2O1 [Example 197, 3-amino-N-(4-((2R,4R,4aS,8aR)-4-amino-4a-hydroxyoctahydro-2H-chromen-2-yl)pyridin-3-yl)-6-phenylpyrazine-2-carboxamide] | 0.023 | 0.0014 | 0.041 | – |
| C=C1[C@@H](O)C[C@@H](c2ccncc2NC(=O)c2nc(-c3ccccc3)cnc2N)OC12CC2 [Example 5, 3-amino-N-(4-((5S,7S)-7-hydroxy-8-methylene-4-oxaspiro[2.5]octan-5-yl)pyridin-3-yl)-6-phenylpyrazine-2-carboxamide] | – | – | – | 0.06 |
| Nc1ncc(-c2ccccc2)nc1C(=O)Nc1cnccc1[C@H]1C[C@@H](O)[C@H](O)[C@@H](CO)O1 [Example 341, 3-amino-N-(4-((2R,4R,5S,6R)-4,5-dihydroxy-6-(hydroxymethyl)tetrahydro-2H-pyran-2-yl)pyridin-3-yl)-6-phenylpyrazine-2-carboxamide] | 0.88 | 0.12 | 0.65 | – |
| CCC[C@H]1O[C@@H](c2ccncc2NC(=O)c2nc(-c3ccccc3)cnc2N)C[C@@H](O)[C@@H]1O [Example 340, 3-amino-N-(4-((2R,4R,5S,6R)-4,5-dihydroxy-6-propyltetrahydro-2H-pyran-2-yl)pyridin-3-yl)-6-phenylpyrazine-2-carboxamide] | 0.81 | 0.11 | 0.86 | – |
| CC[C@@H]1O[C@H](c2ccncc2NC(=O)c2nc(-c3ccccc3)cnc2N)C[C@H](N)[C@H]1O [Example 342, 3-amino-N-(4-((2S,4S,5R,6S)-4-amino-6-ethyl-5-hydroxytetrahydro-2H-pyran-2-yl)pyridin-3-yl)-6-phenylpyrazine-2-carboxamide] | 0.14 | 0.012 | 0.071 | – |
| Nc1ncc(-c2ccccc2)nc1C(=O)Nc1cnccc1[C@H]1C[C@@H](N)[C@@]2(O)CCC[C@H]2O1 [Example 183, 3-amino-N-(4-((2R,4R,4aS,7aR)-4-amino-4a-hydroxyoctahydrocyclopenta[b]pyran-2-yl)pyridin-3-yl)-6-phenylpyrazine-2-carboxamide] | 0.023 | 0.0044 | 0.034 | – |
| C[C@@H]1O[C@H](c2ccncc2NC(=O)c2nc(-c3ccccc3)cnc2N)[C@@H](F)[C@H](O)[C@@]1(C)O [Example 63, 3-amino-N-(4-((2R,3S,4R,5R,6S)-3-fluoro-4,5-dihydroxy-5,6-dimethyltetrahydro-2H-pyran-2-yl)pyridin-3-yl)-6-phenylpyrazine-2-carboxamide] | – | – | – | 0.041 |
| CC(C)(C)[C@H]1O[C@@H](c2ccncc2NC(=O)c2nc(-c3ccccc3)cnc2N)C[C@H](N)[C@@H]1O [Example 286, 3-amino-N-(4-((2R,4S,5S,6R)-4-amino-6-tert-butyl-5-hydroxytetrahydro-2H-pyran-2-yl)pyridin-3-yl)-6-phenylpyrazine-2-carboxamide] | 0.28 | – | – | – |
| Nc1ncc(-c2ccccc2)nc1C(=O)Nc1cnccc1[C@H]1C[C@@H](O)[C@H](O)[C@@H](CCl)O1 [Example 36, 3-amino-N-(4-((2R,4R,5S,6S)-6-(chloromethyl)-4,5-dihydroxytetrahydro-2H-pyran-2-yl)pyridin-3-yl)-6-phenylpyrazine-2-carboxamide] | – | – | – | 0.1 |
| CC[C@H]1O[C@@H](c2ccncc2NC(=O)c2nc(-c3ccccc3)ncc2N)C[C@@H](O)[C@@H]1O [Example 39, 5-amino-N-(4-((2R,4R,5S,6R)-6-ethyl-4,5-dihydroxytetrahydro-2H-pyran-2-yl)pyridin-3-yl)-2-phenylpyrimidine-4-carboxamide] | – | – | – | > 10 |
| C[C@H]1O[C@@H](c2ccncc2NC(=O)c2nc(-c3ccccc3)cnc2N)C[C@@H](O)[C@]1(C)O [Example 84, 3-amino-N-(4-((2R,4R,5S,6R)-4,5-dihydroxy-5,6-dimethyltetrahydro-2H-pyran-2-yl)pyridin-3-yl)-6-phenylpyrazine-2-carboxamide] | – | – | – | 0.49 |
| C[C@H]1O[C@@H](c2ccncc2NC(=O)c2nc(-c3ccccc3)cnc2N)[C@H](F)[C@@H](O)[C@]1(C)O [Example 58, 3-amino-N-(4-((2S,3R,4S,5S,6R)-3-fluoro-4,5-dihydroxy-5,6-dimethyltetrahydro-2H-pyran-2-yl)pyridin-3-yl)-6-phenylpyrazine-2-carboxamide] | – | – | – | 0.82 |
| C[C@H]1O[C@@H](c2ccncc2NC(=O)c2nc(-c3ccccc3)ncc2N)C[C@@H](O)[C@]1(C)O [Example 32, 5-amino-N-(4-((2R,4R,5S,6R)-4,5-dihydroxy-5,6-dimethyltetrahydro-2H-pyran-2-yl)pyridin-3-yl)-2-phenylpyrimidine-4-carboxamide] | – | – | – | > 10 |
| C[C@@H]1O[C@H](c2ccncc2NC(=O)c2nc(-c3ccccc3)cnc2N)C[C@H](O)[C@@]1(C)O [Example 86, 3-amino-N-(4-((2S,4S,5R,6S)-4,5-dihydroxy-5,6-dimethyltetrahydro-2H-pyran-2-yl)pyridin-3-yl)-6-phenylpyrazine-2-carboxamide] | – | – | – | 0.79 |
